Test results taken from patent US20080090903A1, “PHENYLALKYL CARBAMATE COMPOSITIONS” (priority 2006, published 2008).

Experiment: Forced degradation of the phenylalkyl carbamate as a function of pH (pH 9 carbonate buffer, LC-MS)
Type: physicochemical
Conditions: room temperature
Description: Under certain conditions of elevated temperature and relative humidity, such as, 25° C. and 40% RH, 25° C. and 60% RH, 25° C. and 80% RH, 45° C. and 20% RH, 45° C. and 40% RH, 45° C. and 60% RH, 45° C. and 80% RH, or 40° C. and75% RH and the like, an exposed compound or composition may be subject to degradation.
As shown in Scheme A, a sample of Compound A1, the carbamic acid (2R)-2-(2-chloro-phenyl)-2-hydroxy-ethyl ester compound of formula (Ib), was dissolved in a pH 9 carbonate buffer.
The sample was analyzed by LC-MS under reverse phase conditions using positive ion ESI and APCI detection.

Q: Which Degradation in solution does the source give for NC(=O)OC[C@H](O)c1ccccc1Cl [Compound A1, carbamic acid (2R)-2-(2-chloro-phenyl)-2-hydroxy-ethyl ester] here?
A: Its Degradation in solution is “degradation products had formed in appreciable amounts”.
